From patent publication US20160193364A1, “COMPOSITIONS AND METHODS FOR MODULATING MITOCHONDRIAL PYRUVATE CARRIER ACTIVITY” (University of Utah Research Foundation, priority 2012, published 2016)

Columns and labels:
mae1Δmpc1Δ double mutant = experiment: Growth of mae1Δmpc1Δ yeast expressing wild-type MPC1 on glucose medium lacking leucine; type: cell-based, Saccharomyces cerevisiae; conditions: rescue by transgenic wild-type MPC1; 500 μM UK-5099 in plates
Excerpt: Saccharomyces cerevisiae haploid strain BY4741 (MATa his3 leu2 met15 ura3) was used as the parental wild-type strain in the mae1Δ mpc1Δ spot tests and JRY472 (W303a MATa his3 leu2 met15 trp1 ura3) was used as the strain for all other experiments. Single deletion mutations were created in diploid strains by the standard PCR-based homologous recombination method using KanMX4 (kanamycin resistance), NatMX4 (nourseothricin resistance), or HphMX4 (hygromycin B resistance) cassettes to replace the entire gene, followed by sporulation and tetrad dissection to isolate the desired haploid knockout. Double and triple deletion mutants were created by standard crosses. Deletion strains were verified by PCR.
A plasmid library harboring MPC1 mutants was generated by PCR mutagenesis using methods previously described [Hinman et al., 1981]. mpc1Δ mpc3Δ mae1Δ triple mutant yeast cells were transformed with the MPC1 mutant library and plated onto SD-Ura-Leu supplemented 500 μM UK-5099. […] To quantify UK-5099 resistance conferred by the D118G substitution, uniform suspensions of mpc1Δ mpc3Δ mae1Δ triple mutant yeast cells were transformed with 2 μg empty vector, plasmid harboring wild-type MPC1, or plasmid harboring MPC1 D 118G, and then plated onto either SD-Ura, SD-Ura-Leu, or SD-Ura-Leu plus 500 μM UK-5099.

MPC1 = target: T1, MPC1 (Saccharomyces cerevisiae, UniProt P38857+P53157); experiment: 14C-pyruvate uptake into isolated yeast mitochondria expressing wild-type MPC1; type: biochemical; conditions: 0.2 mM UK-5099, 2 min preincubation, vs DMSO
T1 construct: expressed in transfected cells; host or cells: S. cerevisiae mpc1Δ strain carrying an MPC1 plasmid; isolated mitochondria
T1 sequence (P53157 1-130): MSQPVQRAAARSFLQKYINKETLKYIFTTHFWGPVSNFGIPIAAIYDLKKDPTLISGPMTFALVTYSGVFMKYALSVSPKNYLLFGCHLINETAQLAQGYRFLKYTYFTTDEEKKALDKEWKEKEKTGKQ
T1 sequence (P38857 1-129): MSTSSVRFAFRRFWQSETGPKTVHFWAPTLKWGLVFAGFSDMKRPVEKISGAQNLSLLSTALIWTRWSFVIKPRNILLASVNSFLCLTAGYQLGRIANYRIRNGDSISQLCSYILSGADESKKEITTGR
Method: (§1) Yeast mitochondria were isolated using a simplified version of the method described by Boldogh and Pon [Wittig et al., 2006]. Briefly, yeast were grown in synthetic 2% raffinose media to an A600˜3.0 and collected. The cells were pelleted, washed with sterile water, re-pelleted, and then frozen at −80° C. Mitochondrial isolation began by thawing the cells on ice, digesting the cell wall with lyticase (Sigma) for one hour to generate spheroplasts. Following 40 minutes in regeneration buffer, spheroplasts were lysed using a Dounce homogenizer. The mitochondria were further purified through several high and low speed centrifugation steps.
(§2) Mitochondria used for pyruvate uptake experiments were extracted from live cells, kept on ice and used within 5 hours of harvest without freezing. An estimate of mitochondrial concentration was calculated using A280. Samples were then diluted to yield equal mitochondrial mass and centrifuged at 10000 rpm for 10 minutes to pellet mitochondria. The supernatant was then removed and the mitochondrial pellet was resuspended in respiratory buffer (120 mM KCl, 5 mM KH2PO4, 1 mM EGTA, and 3 mM HEPES pH 7.4) and placed on ice.
(§3) To initiate pyruvate uptake, 50 μL of mitochondria was added to 100 μL of room temperature respiratory buffer at pH 6.8 in a microcentrifuge tube. […] Five biological replicates were analyzed per group. […]

[1] = target: T2, mitochondrial pyruvate carrier (Rattus norvegicus, UniProt P38718+P63031); conditions: Halestrap 1975; cited from earlier work
T2 sequence (P63031 1-109): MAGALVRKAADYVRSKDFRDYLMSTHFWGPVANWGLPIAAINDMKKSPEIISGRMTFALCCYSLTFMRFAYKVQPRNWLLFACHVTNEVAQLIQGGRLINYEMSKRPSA
T2 sequence (P38718 1-127): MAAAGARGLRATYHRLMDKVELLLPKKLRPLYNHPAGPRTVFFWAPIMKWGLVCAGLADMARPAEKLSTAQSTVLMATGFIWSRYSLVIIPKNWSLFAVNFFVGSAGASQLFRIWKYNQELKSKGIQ

MPC1 D118G = experiment: Growth of yeast expressing MPC1 D118G in the presence of UK-5099; type: cell-based, Saccharomyces cerevisiae; conditions: D118G substitution in MPC1; 500 μM UK-5099 in plates
Method: A plasmid library harboring MPC1 mutants was generated by PCR mutagenesis using methods previously described [Hinman et al., 1981]. mpc1Δ mpc3Δ mae1Δ triple mutant yeast cells were transformed with the MPC1 mutant library and plated onto SD-Ura-Leu supplemented 500 μM UK-5099. Plates were incubated at 30° C. for 72 hours and mutant plasmids were isolated from viable colonies, amplified in E. coli., and then transformed into naive mpc1Δ mpc3Δ mae1Δ triple mutant yeast cells to confirm the conferral of resistance to UK-5099. An MPC1 mutant containing a D118G substitution was recovered from this screen. To quantify UK-5099 resistance conferred by the D118G substitution, uniform suspensions of mpc1Δ mpc3Δ mae1Δ triple mutant yeast cells were transformed with 2 μg empty vector, plasmid harboring wild-type MPC1, or plasmid harboring MPC1 D 118G, and then plated onto either SD-Ura, SD-Ura-Leu, or SD-Ura-Leu plus 500 μM UK-5099.

MPC1-D118G = target: T3, MPC1-D118G (Saccharomyces cerevisiae, UniProt P38857+P53157, D118G); experiment: 14C-pyruvate uptake into isolated yeast mitochondria expressing MPC1-D118G; type: biochemical; conditions: 0.2 mM UK-5099, 2 min preincubation, vs DMSO
T3 construct: expressed in transfected cells; host or cells: S. cerevisiae mpc1Δ strain carrying an MPC1-D118G plasmid; isolated mitochondria
Method: as §1, §2, §3

T3 sequence (P53157 whole entry D118G, one chain of several): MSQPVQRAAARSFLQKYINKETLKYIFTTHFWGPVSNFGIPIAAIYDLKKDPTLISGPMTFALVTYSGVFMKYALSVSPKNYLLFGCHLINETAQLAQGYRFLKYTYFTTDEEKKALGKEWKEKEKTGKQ

N#C/C(=C\c1cn(-c2ccccc2)c2ccccc12)C(=O)O [UK-5099]
growth on glucose medium lacking leucine (mae1Δmpc1Δ double mutant): effectively rescued by transgenic expression of wild-type MPC1 in the absence, but not the presence, of UK-5099
14C-pyruvate uptake into mitochondria (MPC1): almost completely inhibited
inhibition of carrier activity [1]: specific and potent inhibitors of carrier activity
growth in the presence of UK-5099 (MPC1 D118G): conferred UK-5099 resistance
14C-pyruvate uptake into mitochondria (MPC1-D118G): efficient pyruvate uptake that is resistant to UK-5099
